Test results from article PMC5988656, “Phase I studies of AZD1208, a proviral integration Moloney virus kinase inhibitor in solid and haematological cancers” (British Journal of Cancer, 2018).

Tested on: patients with advanced solid tumours
Experiment: Solid tumour dose-escalation study: safety and tolerability (AEs, DLTs)
Description: Conducted at two UK centres and one in Japan. Dose escalation followed a rolling six design.[14] Patients received a single dose on Day 1 during Cycle 0, followed by a 3-day washout period, after which multiple dosing was initiated. Cycle 1 was a 21-day period from the first dose of multiple dosing.
The CTCAE (version 4.0) was utilised to grade all AE events.
AEs were summarised by Medical Dictionary for Regulatory Activities (MedDRA) system organ class, MedDRA preferred term and CTCAE grade. Summary statistics of mean, median, standard deviation, minimum, maximum and number of observations were used.

N[C@@H]1CCCN(c2c(/C=C3\SC(=O)NC3=O)cccc2-c2ccccc2)C1 [AZD1208]
White blood cell count decreased (all-grade AE) (540 mg, n = 7): 2 (28.6) n (%) | Patients requiring dose interruptions because of AEs (700 mg): 3 n | Patients with CTCAE grade ≥3 AEs causally related to AZD1208 (700 mg (nausea, fatigue)): 1 n | Anaemia (all-grade AE) (700 mg, n = 6): 3 (50.0) n (%) | Constipation (all-grade AE) (700 mg, n = 6): 2 (33.3) n (%) | Decreased appetite (all-grade AE) (700 mg, n = 6): 2 (33.3) n (%) | Diarrhoea (all-grade AE) (700 mg, n = 6): 5 (83.3) n (%) | Dry skin (all-grade AE) (700 mg, n = 6): 1 (16.7) n (%) | Dyspnoea (all-grade AE) (700 mg, n = 6): 0 (0.0) n (%) | Fatigue (all-grade AE) (700 mg, n = 6): 4 (66.7) n (%) | GGT increased (all-grade AE) (700 mg, n = 6): 0 (0.0) n (%) | Hyperglycaemia (all-grade AE) (700 mg, n = 6): 0 (0.0) n (%) | Hypoalbuminaemia (all-grade AE) (700 mg, n = 6): 3 (50.0) n (%) | Hypokalaemia (all-grade AE) (700 mg, n = 6): 1 (16.7) n (%) | Hyponatraemia (all-grade AE) (700 mg, n = 6): 1 (16.7) n (%) | Insomnia (all-grade AE) (700 mg, n = 6): 0 (0.0) n (%) | Musculoskeletal chest pain (all-grade AE) (700 mg, n = 6): 1 (16.7) n (%) | Nausea (all-grade AE) (700 mg, n = 6): 5 (83.3) n (%) | Patients with any AE (all-grade AE) (700 mg, n = 6): 6 (100.0) n (%) | Platelet count decreased (all-grade AE) (700 mg, n = 6): 1 (16.7) n (%) | Pyrexia (all-grade AE) (700 mg, n = 6): 2 (33.3) n (%) | Thrombocytopenia (all-grade AE) (700 mg, n = 6): 1 (16.7) n (%) | Vomiting (all-grade AE) (700 mg, n = 6): 4 (66.7) n (%) | White blood cell count decreased (all-grade AE) (700 mg, n = 6): 1 (16.7) n (%) | Patients requiring dose interruptions because of AEs (800 mg): 2 n | Patients with CTCAE grade ≥3 AEs causally related to AZD1208 (800 mg (fatigue, hyperglycaemia)): 3 n | Tolerability (800 mg QD): not tolerated | Abdominal pain (all-grade AE) (800 mg, n = 6): 0 (0.0) n (%) | Anaemia (all-grade AE) (800 mg, n = 6): 2 (33.3) n (%) | Constipation (all-grade AE) (800 mg, n = 6): 0 (0.0) n (%) | DLT detail, action taken (800 mg, n = 6): Fatigue, drug interrupted; fatigue, drug interrupted | Decreased appetite (all-grade AE) (800 mg, n = 6): 3 (50.0) n (%) | Diarrhoea (all-grade AE) (800 mg, n = 6): 6 (100.0) n (%) | Dry skin (all-grade AE) (800 mg, n = 6): 0 (0.0) n (%) | Dyspnoea (all-grade AE) (800 mg, n = 6): 0 (0.0) n (%) | Fatigue (all-grade AE) (800 mg, n = 6): 5 (83.3) n (%) | GGT increased (all-grade AE) (800 mg, n = 6): 1 (16.7) n (%) | Hyperglycaemia (all-grade AE) (800 mg, n = 6): 2 (33.3) n (%) | Hypoalbuminaemia (all-grade AE) (800 mg, n = 6): 0 (0.0) n (%) | Hypokalaemia (all-grade AE) (800 mg, n = 6): 1 (16.7) n (%) | Hyponatraemia (all-grade AE) (800 mg, n = 6): 0 (0.0) n (%) | Insomnia (all-grade AE) (800 mg, n = 6): 1 (16.7) n (%) | Musculoskeletal chest pain (all-grade AE) (800 mg, n = 6): 0 (0.0) n (%) | Nausea (all-grade AE) (800 mg, n = 6): 4 (66.7) n (%) | Patients with any AE (all-grade AE) (800 mg, n = 6): 6 (100.0) n (%) | Platelet count decreased (all-grade AE) (800 mg, n = 6): 1 (16.7) n (%) | Pyrexia (all-grade AE) (800 mg, n = 6): 0 (0.0) n (%) | Thrombocytopenia (all-grade AE) (800 mg, n = 6): 1 (16.7) n (%) | Vomiting (all-grade AE) (800 mg, n = 6): 3 (50.0) n (%) | White blood cell count decreased (all-grade AE) (800 mg, n = 6): 0 (0.0) n (%) | Abdominal pain (all-grade AE) (Total N = 35): 8 (22.9) n (%) | Anaemia (all-grade AE) (Total N = 35): 18 (51.4) n (%) | Constipation (all-grade AE) (Total N = 35): 5 (14.3) n (%) | Decreased appetite (all-grade AE) (Total N = 35): 15 (42.9) n (%) | Diarrhoea (all-grade AE) (Total N = 35): 29 (82.9) n (%) | Dry skin (all-grade AE) (Total N = 35): 7 (20.0) n (%) | Dyspnoea (all-grade AE) (Total N = 35): 4 (11.4) n (%) | Fatigue (all-grade AE) (Total N = 35): 17 (48.6) n (%) | GGT increased (all-grade AE) (Total N = 35): 6 (17.1) n (%) | Hyperglycaemia (all-grade AE) (Total N = 35): 8 (22.9) n (%) | Hypoalbuminaemia (all-grade AE) (Total N = 35): 9 (25.7) n (%) | Hypokalaemia (all-grade AE) (Total N = 35): 4 (11.4) n (%) | Hyponatraemia (all-grade AE) (Total N = 35): 5 (14.3) n (%) | Insomnia (all-grade AE) (Total N = 35): 4 (11.4) n (%) | Musculoskeletal chest pain (all-grade AE) (Total N = 35): 4 (11.4) n (%) | Nausea (all-grade AE) (Total N = 35): 26 (74.3) n (%) | Patients with any AE (all-grade AE) (Total N = 35): 35 (100.0) n (%) | Platelet count decreased (all-grade AE) (Total N = 35): 9 (25.7) n (%) | Pyrexia (all-grade AE) (Total N = 35): 6 (17.1) n (%) | Thrombocytopenia (all-grade AE) (Total N = 35): 5 (14.3) n (%) | Vomiting (all-grade AE) (Total N = 35): 19 (54.3) n (%) | White blood cell count decreased (all-grade AE) (Total N = 35): 9 (25.7) n (%) | Patients with DLTs (all doses): Four | AEs of grade ≥3, patients (all doses, 35 patients): 45.7% | CTCAE grade ≥3 AEs causally related to AZD1208, patients (all doses, 35 patients): 28.6% | CTCAE grade ≥3 GGT increase, patients (all doses, 35 patients): 8.6% | CTCAE grade ≥3 abdominal pain, patients (all doses, 35 patients): 5.7% | CTCAE grade ≥3 anaemia, patients (all doses, 35 patients): 5.7% | CTCAE grade ≥3 fatigue, patients (all doses, 35 patients): 11.4% | Diarrhoea causally related to AZD1208, patients (all doses, 35 patients): 68.6% | Diarrhoea, patients (all doses, 35 patients): 82.9% | Discontinued the study due to an AE, patients (all doses, 35 patients): 11.4% | Dose interruptions because of AEs, patients (all doses, 35 patients): 45.7% | Gastrointestinal disorders AEs, patients (all doses, 35 patients): 97.1% | Nausea causally related to AZD1208, patients (all doses, 35 patients): 65.7% | Nausea, patients (all doses, 35 patients): 74.3% | Patients with ≥1 SAE (all doses, 35 patients): 22.9% | SAE dyspnoea, patients (all doses, 35 patients): 5.7% | SAE vomiting, patients (all doses, 35 patients): 5.7% | Vomiting, patients (all doses, 35 patients): 54.3% | Treatment-related changes in haematology, clinical chemistry, vital signs, ECG or physical findings (any patient): No clinically significant treatment-related changes | Patients who died as a result of an AE (not considered AZD1208-related by the investigator): 2.9% | Patients reporting treatment-related SAEs (one patient, three SAEs (vomiting, fatigue, general physical health deterioration)): 2.9% | Doses tolerated as monotherapy (solid tumour study): up to 700 mg QD | Maximum tolerated dose (MTD) (solid tumour study): could not be determined
